Where two headings read alike, the source gives them in different places.
Experiments:
[1] = test system: blood pressure in NR; experiment: Test 3: effect on the blood pressure in NR, intravenous; assay type: in vivo, male Wistar rats (normotensive rats; conditions: 100 μg/kg, procedure of Test 2 (femoral vein), 10- to 12-week-old male Wistar rats
Method: (§1) Thirty-two-week-old male SHRs (divided into groups of three rats each) were anesthetized with urethane (1.1 g/kg, i.p.), and the blood pressure of each of the rats delivered from the common carotid artery was recorded on a polygraph through a pressure transducer (Model MPU-0.5).
(§2) The pharmaceutical preparation was administered through a cannula inserted into the femoral vein of the rat at a rate of 0.5 ml/kg, and the blood pressure was measured continuously from before administration to 30 minutes after administration.
(§3) The procedure of Test 2 was followed with 10- to 12-week-old male Wistar rats (divided into groups of three rats each) to measure the hypotensive effects of the respective pharmaceutical preparations (100 μg/kg). Simultaneously, the change in heart rate was measured. The heart rate was measured by an ictometer based on the systolic blood pressure as a trigger.

[2] = test system: heart rate; experiment: Test 3: change in heart rate in NR; assay type: in vivo, male Wistar rats (normotensive rats; conditions: 100 μg/kg, procedure of Test 2, 10- to 12-week-old male Wistar rats
Method: as §3

[3] = test system: blood pressure in SHR; experiment: Test 1: effect on the blood pressure in SHR, oral, tail artery sphygmomanometer; assay type: in vivo, spontaneously hypertensive rats (SHR); conditions: 12- to 15-week-old male SHR, maximum within 2, 4, 6 and 8 hours
Method: To twelve- to fifteen-week-old male SHRs were orally administered test compounds each suspended in 0.5% CMC/physiological saline at a rate of 2 ml/kg. The blood pressure of the thus treated SHRs was measured by means of a tail artery sphygmomanometer (supplied by Nalco Co., Model PE-300) prior to the oral administration and at 2, 4, 6 and 8 hours thereafter. Reduction in blood pressure was calculated on the basis of the values thus obtained, and the maximum reduction levels attained by the respective compounds are summarized in TABLE 2. Each test compound was evaluated with a group of 4 rats.

[4] = test system: blood pressure in SHR; experiment: Test 2: effect on the blood pressure in SHR, intravenous, anesthetized; assay type: in vivo, spontaneously hypertensive rats (SHR), male; conditions: for Reduction in blood pressure (-Δmax, mmHg): 100 μg/kg, femoral vein, 32-week-old male SHR, urethane anesthesia, 30 minutes; for selectivity of hypotensive effect, SHR versus NR (in words): TABLES 3 and 4, 100 μg/kg
Method: as §1, §2

[5] = test system: male Jcl:ICR mice; experiment: Test 5: Acute toxicity; assay type: in vivo
Method: (§4) The acute toxicity of Compound 8(n=13) was tested with seven-week-old male Jcl:ICR mice.
(§5) The physically allowable doses of Compound 8 for intraperitoneal administration and oral administration were 800 mg/kg and 1,300 mg/kg, respectively.

[6] = test system: blood pressure in SHR; experiment: Test 4: effect on the blood pressure in SHR, oral; assay type: in vivo, spontaneously hypertensive rats (SHR), male; conditions: 10 mg/kg
[7] = test system: blood pressure in NR; experiment: Test 4: effect on the blood pressure in NR, oral; assay type: in vivo, male Wistar rats (normotensive rats; conditions: Wistar rat, 18- to 20-week-old male, 10 mg/kg
Method: Eighteen- to twenty-week-old male SHR (divided into groups of four rats each) and eighteen- to twenty-week-old male Wistar rats (divided into groups of four rats each) were orally administered with Compound 8(n=13) in the same manner as in Test 2 at a dose of 10 mg/kg, and the blood pressure of each of the rats was measured.

[8] = Test 5: Acute toxicity; assay type: in vivo; conditions: mouse, in vivo
Method: as §4, §5

[9] = test system: heart; conditions: side effect, background statement; cited from earlier work
[10] = test system: adenosine deaminase; conditions: background statement; cited from earlier work

## CCCC#Cc1nc(N)c2ncn([C@@H]3O[C@H](CO)[C@@H](O)[C@H]3O)c2n1 [Compound 1]
[1]
  Reduction in blood pressure (-Δmax, mmHg): 21 mmHg
[2]
  Change in heart rate (ΔHR): -48

## CCCCC#Cc1nc(N)c2ncn([C@@H]3O[C@H](CO)[C@@H](O)[C@H]3O)c2n1 [Compound 2]
[1]
  Reduction in blood pressure (-Δmax, mmHg): 42 mmHg
[2]
  Change in heart rate (ΔHR): -36
[3]; 1 mg/kg
  Reduction in blood pressure (-Δmax, mmHg): > 136 mmHg

## CCCCCC#Cc1nc(N)c2ncn([C@@H]3O[C@H](CO)[C@@H](O)[C@H]3O)c2n1 [Compound 3]
[1]
  Reduction in blood pressure (-Δmax, mmHg): 48 mmHg
[2]
  Change in heart rate (ΔHR): -180

## CCCCCCC#Cc1nc(N)c2ncn([C@@H]3O[C@H](CO)[C@@H](O)[C@H]3O)c2n1 [Compound 4]
[1]
  Reduction in blood pressure (-Δmax, mmHg): 55 mmHg
[2]
  Change in heart rate (ΔHR): -288
[3]; 1 mg/kg
  Reduction in blood pressure (-Δmax, mmHg): 69 mmHg

## CCCCCCCCC#Cc1nc(N)c2ncn([C@@H]3O[C@H](CO)[C@@H](O)[C@H]3O)c2n1 [Compound 5]
[1]
  Reduction in blood pressure (-Δmax, mmHg): 24 mmHg
[2]
  Change in heart rate (ΔHR): -18
[3]; 3 mg/kg
  Reduction in blood pressure (-Δmax, mmHg): 106 mmHg

## CCCCCCCCCCC#Cc1nc(N)c2ncn([C@@H]3O[C@H](CO)[C@@H](O)[C@H]3O)c2n1 [Compound 6]
[4]
  Reduction in blood pressure (-Δmax, mmHg): 20 mmHg
  selectivity of hypotensive effect, SHR versus NR (in words): substantially equal hypotensive effect on SHR and NR
[1]
  Reduction in blood pressure (-Δmax, mmHg): 26 mmHg
[2]
  Change in heart rate (ΔHR): -12
[5]; mouse, in vivo
  mortality, intraperitoneal administration of 500 mg/kg: all the five mice forming one group died
[3]; 3 mg/kg
  Reduction in blood pressure (-Δmax, mmHg): 65 mmHg

## CCCCCCCCCCCCC#Cc1nc(N)c2ncn([C@@H]3O[C@H](CO)[C@@H](O)[C@H]3O)c2n1 [Compound 7]
[4]
  Reduction in blood pressure (-Δmax, mmHg): 21 mmHg
  selectivity of hypotensive effect, SHR versus NR (in words): acted selectively on SHR
[1]
  Reduction in blood pressure (-Δmax, mmHg): 10 mmHg
[2]
  Change in heart rate (ΔHR): 0
[3]; 3 mg/kg
  Reduction in blood pressure (-Δmax, mmHg): 65 mmHg

## CCCCCCCCCCCCCCC#Cc1nc(N)c2ncn([C@@H]3O[C@H](CO)[C@@H](O)[C@H]3O)c2n1 [Compound 8]
[6]; SHR versus Wistar rat, TABLE 5
  selectivity of hypotensive effect on SHR, oral (in words): tendency of Compound 8(n=13) to act selectively on SHR
[6]; SHR, 18- to 20-week-old male, 1 hr
  Reduction in blood pressure (-Δ, mmHg), 1 hr. after administration: 41 mmHg
[6]; SHR, 18- to 20-week-old male, 2 hrs
  Reduction in blood pressure (-Δ, mmHg), 2 hrs. after administration: 42 mmHg
[4]
  Reduction in blood pressure (-Δmax, mmHg): 16 mmHg
  selectivity of hypotensive effect, SHR versus NR (in words): acted selectively on SHR
[1]
  Reduction in blood pressure (-Δmax, mmHg): 5 mmHg
[7]; 1 hr
  Reduction in blood pressure (-Δ, mmHg), 1 hr. after administration: 16 mmHg
[7]; 2 hrs
  Reduction in blood pressure (-Δ, mmHg), 2 hrs. after administration: 24 mmHg
[2]
  Change in heart rate (ΔHR): 0
[5]; compared with long-chain compound such as Compound 6
  toxicity compared with Compound 6 (in words): less toxic
[5]; mouse, in vivo
  mortality at maximum doses: None of the mice administered with the test compound at these maximum doses, divided into groups of five mice each, died
[8]; ip, read-out: LD50, intraperitoneal administration
  LD50: > 800 mg/kg
[8]; po
  selectivity ratio: ≥ 400
[8]; po, read-out: LD50, oral administration
  LD50: > 1300 mg/kg
[3]; 3 mg/kg
  Reduction in blood pressure (-Δmax, mmHg): 48 mmHg

## CCCCCCCCCCCCCCCC#Cc1nc(N)c2ncn([C@@H]3O[C@H](CO)[C@@H](O)[C@H]3O)c2n1 [Compound 9]
[1]
  Reduction in blood pressure (-Δmax, mmHg): 3 mmHg
[2]
  Change in heart rate (ΔHR): -6
[3]; 3 mg/kg
  Reduction in blood pressure (-Δmax, mmHg): 35 mmHg

## CCCCCCCCCCCCCCCCC#Cc1nc(N)c2ncn([C@@H]3O[C@H](CO)[C@@H](O)[C@H]3O)c2n1 [Compound 10]
[1]
  Reduction in blood pressure (-Δmax, mmHg): 10 mmHg
[2]
  Change in heart rate (ΔHR): -5
[3]; 3 mg/kg
  Reduction in blood pressure (-Δmax, mmHg): 46 mmHg

## Nc1ncnc2c1ncn2[C@@H]1O[C@H](CO)[C@@H](O)[C@H]1O [adenosine]
[9]
  suppressive effect on the heart: strong suppressive effect on the heart
[10]
  deamination by adenosine deaminase: rapidly deaminated by adenosine deaminase

— US4956345A, “2-alkynyladenosines as antihypertensive agents” (Yamasa Shoyu Kabushiki Kaisha, priority 1985, dated 1990)
